In US6218102A, “Synthetic peptides and mixtures thereof for detecting HIV antibodies” (priority 1988, dated 2001):
Like-named read-outs stand apart in the source and are kept apart here. Peptide text beside a SMILES is read from it.

Key:
[1] = test system: antibodies of patients infected by the AIDS viruses; details: cited from earlier work
Antibodies to HIV-1 [2] = assay: ELISA with peptide or peptide mixture as antigen, identifying HIV-1 positive sera; type: binding, human; details: single peptide, known HIV-1 positive sera, Table 3
Protocol: According to this test a peptide or a peptide mixture of the present invention is adsorbed onto the wells of a microtiter plate. The wells are then treated with sera to be tested. After washing, anti-human IgG labeled with peroxidase is added to the wells. The determination of the peroxidase is performed with a corresponding substrate, e.g. with o-phenylene diamine. Also in this procedure the peroxidase can be exchanged by another label, e.g. by a radioactive or fluorescence label.
(§1) Each well of the microtiter plate is saturated with 100 μl of a solution containing a peptide or mixture of peptides (5 μg/ml) and left overnight. The wells are emptied and washed twice with a washing buffer (Tris, 0.043M; NaCl, 0.5M; thimerosal, 0.01% w/v; Tween 20, 0.05% v/v; pH7.4). The wells are then saturated with 0.35 ml of washing buffer for 1 hr. at 37° C. and washed once with the same buffer. Serum samples to be analyzed are diluted with specimen buffer (washing buffer plus casein, 0.05% w/v). The wells are rinsed with washing buffer prior to the addition of the diluted serum sample (0.1 ml). These are left to incubate for 1 hr. at room temperature. The wells are then emptied, washed twice rapidly and then once for two minutes with washing buffer. […] The wells are then emptied and washed twice rapidly with washing buffer and then five times in which the buffer was in contact with the well 2 minutes per washing. The substrate solution (3,3', 5,5'-tetramethylbenzidine, 8 mg per ml of DMSO) is diluted with 100 volumes 0.1M citrate-acetate buffer, pH 5.6 containing 0.1% v/v of 30% H2 O2 and added to each well (0.1 ml per well). After 10 minutes the contents of each well is treated with 0.1 ml 2N H2 SO4 and the optical density read at 450 nm. All determinations are done in duplicate.

Antibodies to HIV-1 [3] = assay: ELISA, relative performance of cyclic and non-cyclic HIV-1 peptides at serum dilutions (optical density); type: binding, human
Protocol: Table 4 is provided to illustrate the sensitivity of cyclic versus non cyclic peptides in the ELISA test by comparing the results of some sera at various dilutions.
as §1

[4] = serum specimen 87V103, dilution 1/50
[5] = serum specimen 1428, dilution 1/50
[6] = serum specimen M-5, dilution 1/50
[7] = serum specimen M-5, dilution 1/100
[8] = serum specimen M-5, dilution 1/200
[9] = serum specimen M-5, dilution 1/400
[10] = serum specimen M-5, dilution 1/800
[11] = serum specimen M-7, dilution 1/50
[12] = serum specimen M-7, dilution 1/100
[13] = serum specimen M-7, dilution 1/200
[14] = serum specimen M-7, dilution 1/400
[15] = serum specimen M-7, dilution 1/800
[16] = serum specimen M-8, dilution 1/50
[17] = serum specimen M-8, dilution 1/100
[18] = serum specimen M-8, dilution 1/200
[19] = serum specimen M-8, dilution 1/400
[20] = serum specimen M-8, dilution 1/800
[21] = serum specimen M-16, dilution 1/50
[22] = serum specimen M-16, dilution 1/100
[23] = serum specimen M-16, dilution 1/200
[24] = serum specimen M-16, dilution 1/400
[25] = serum specimen M-16, dilution 1/800

Compound	% Positive Sera Correctly Identified (Antibodies to HIV-1 [2]) [%]	ELISA optical density (Antibodies to HIV-1 [3]; [4]) [OPTICAL DENSITY UNITS]	ELISA optical density (Antibodies to HIV-1 [3]; [5]) [OPTICAL DENSITY UNITS]	ELISA optical density (Antibodies to HIV-1 [3]; [6]) [OPTICAL DENSITY UNITS]	ELISA optical density (Antibodies to HIV-1 [3]; [7]) [OPTICAL DENSITY UNITS]	ELISA optical density (Antibodies to HIV-1 [3]; [8]) [OPTICAL DENSITY UNITS]	ELISA optical density (Antibodies to HIV-1 [3]; [9]) [OPTICAL DENSITY UNITS]	ELISA optical density (Antibodies to HIV-1 [3]; [10]) [OPTICAL DENSITY UNITS]	ELISA optical density (Antibodies to HIV-1 [3]; [11]) [OPTICAL DENSITY UNITS]	ELISA optical density (Antibodies to HIV-1 [3]; [12]) [OPTICAL DENSITY UNITS]	ELISA optical density (Antibodies to HIV-1 [3]; [13]) [OPTICAL DENSITY UNITS]	ELISA optical density (Antibodies to HIV-1 [3]; [14]) [OPTICAL DENSITY UNITS]	ELISA optical density (Antibodies to HIV-1 [3]; [15]) [OPTICAL DENSITY UNITS]	ELISA optical density (Antibodies to HIV-1 [3]; [16]) [OPTICAL DENSITY UNITS]	ELISA optical density (Antibodies to HIV-1 [3]; [17]) [OPTICAL DENSITY UNITS]	ELISA optical density (Antibodies to HIV-1 [3]; [18]) [OPTICAL DENSITY UNITS]	ELISA optical density (Antibodies to HIV-1 [3]; [19]) [OPTICAL DENSITY UNITS]	ELISA optical density (Antibodies to HIV-1 [3]; [20]) [OPTICAL DENSITY UNITS]	ELISA optical density (Antibodies to HIV-1 [3]; [21]) [OPTICAL DENSITY UNITS]	ELISA optical density (Antibodies to HIV-1 [3]; [22]) [OPTICAL DENSITY UNITS]	also measured
12-amino acid sequence (600-611): 12-amino acid sequence 600-611 from gp 41 (HIV-1), Gnann et al.																					positive sera detected ([1]; Center for Disease Control, Atlanta): 78 out of 79; positive sera detected ([1]; Gnann et al., Journal of Virology 1987): 22 out of 22; HIV-1-infected patients reactive ([1]; J. Infect. Dis. 156, 1987, patients from the United States): 131 out of 132
CC[C@H](C)[C@H](NC(=O)CNC(=O)[C@H](CC(C)C)NC(=O)[C@H](CC(C)C)NC(=O)[C@H](CCC(N)=O)NC(=O)[C@H](CCC(N)=O)NC(=O)[C@H](CC(=O)O)NC(=O)[C@H](CCCCN)NC(=O)[C@H](CC(C)C)NC(=O)[C@H](Cc1ccc(O)cc1)NC(=O)[C@H](CCCNC(=N)N)NC(=O)[C@H](CCC(=O)O)NC(=O)[C@@H](NC(=O)[C@H](C)NC(=O)[C@H](CC(C)C)NC(=O)[C@@H](NC(=O)[C@@H](N)CCCNC(=N)N)[C@@H](C)CC)C(C)C)C(=O)N[C@@H](Cc1c[nH]c2ccccc12)C(=O)NCC(=O)N[C@H]1CSSC[C@@H](C(=O)N[C@H](C(=O)N[C@H](C(=O)N[C@@H](C)C(=O)N[C@H](C(=O)N2CCC[C@H]2C(=O)N[C@@H](Cc2c[nH]c3ccccc23)C(=O)N[C@@H](CC(N)=O)C(=O)N[C@@H](C)C(=O)N[C@@H](CO)C(=O)O)C(C)C)[C@@H](C)O)[C@@H](C)O)NC(=O)[C@H]([C@@H](C)CC)NC(=O)[C@H](CC(C)C)NC(=O)[C@H](CCCCN)NC(=O)CNC(=O)[C@H](CO)NC1=O [Peptide 87c] (HELM PEPTIDE1{R.I.L.A.V.E.R.Y.L.K.D.Q.Q.L.L.G.I.W.G.C.S.G.K.L.I.C.T.T.A.V.P.W.N.A.S}$PEPTIDE1,PEPTIDE1,20:R3-26:R3$$$V2.0)	99	0.011	> 2.0	> 2.0	> 2.0	> 2.0	> 2.0	1.854	> 2.0	> 2.0	1.729	1.348	0.611	> 2.0	> 2.0	1.655	1.064	0.384	> 2.0	> 2.0	ELISA optical density (Antibodies to HIV-1 [3]; [23]): > 2.0 OPTICAL DENSITY UNITS; ELISA optical density (Antibodies to HIV-1 [3]; [24]): > 2.0 OPTICAL DENSITY UNITS; ELISA optical density (Antibodies to HIV-1 [3]; [25]): 1.962 OPTICAL DENSITY UNITS
NH2 -RILAVERYLKDQQLLGIWGCSGKLICTTAVPWNAS-COOH [Peptide 87]	99	0.005	1.463	1.809	1.219	1.513	1.418	1.012	1.504	1.329	1.184	0.923	0.571	1.390	1.087	0.883	0.593	0.240	1.846	1.784	ELISA optical density (Antibodies to HIV-1 [3]; [23]): 1.740 OPTICAL DENSITY UNITS; ELISA optical density (Antibodies to HIV-1 [3]; [24]): 1.634 OPTICAL DENSITY UNITS; ELISA optical density (Antibodies to HIV-1 [3]; [25]): 1.537 OPTICAL DENSITY UNITS
SGKLIC																					immunoreactivity with HIV-1 positive sera ([1]; Gnann et al., 22 HIV-1 positive sera): not immunoreactive with any of the 22 HIV-1 positive sera tested
SGKLICTTAVPWNAS [short synthetic peptide covering residues 606 to 620 of gp 41 (HIV-1), Ser. No. 120,027]																					specificity ([1]; U.S. Ser. No. 120,027, seronegative specimens correctly identified): 63/63; sensitivity ([1]; U.S. Ser. No. 120,027, six of 57 confirmed positive not detected): 89%
